Assay results reported in patent EP4060021A1, “MIMETIC MICROBIOLOGICAL CULTURE MEDIUM AND USES THEREOF” (BIOFILM PHARMA, priority 2021, dated 2022).
Values after ≈ are worked out from the molar mass of the structure shown.

Columns and labels:
[1] = test system: souches de S. aureus issues de prélèvements de plaies du pied infectées chez des patients diabétiques; test: Antibiotic susceptibility test (MIC, 96-well microplate, OD 600 nm) in Mueller-Hinton medium (MH); format: cell-based; design: key to Classification (S) ou (R) en MH: S (sensible); R (résistante); conditions: for MIC: Staphylococcus aureus, read-out: CMI en milieu MH
Description: (§1) • La Figure 1 représente des courbes de croissance de bactéries en fonction du milieu de culture. Sur cette figure, les ordonnées correspondent au logarithme d'unités formant colonie par millilitre de milieu de culture (Log UFC/ml) et les abscisses, au temps en heure (H). La Figure 1A représente les courbes correspondant à la croissance de 2 souches de S. aureus, Newman (gauche) et SAC1 (droite), dans le milieu BHI (courbe avec indicateurs ronds) et un exemple de milieu selon l'invention (MP) (courbe avec indicateurs carrés). La Figure 1B représente les courbes correspondant à la croissance de 2 souches de P. aeruginosa, PAO1 (gauche) et PAC1 (droite), dans le milieu BHI (courbe avec indicateurs ronds) et un exemple de milieu selon l'invention (MP) (courbe avec indicateurs carrés). La Figure 1C représente les courbes correspondant à la croissance de 2 souches cliniques S. aureus SAC1 et P. aeruginosa PAC1, en coculture dans le milieu BHI (P. aeruginosa BHI ou S. aureus BHI) et un exemple de milieu selon l'invention (MP) (P. aeruginosa MP ou S. aureus MP). La mesure de différence significative, réalisée par le test de Student, entre les valeurs d'UFC/mL est exprimée, soit par (***) qui correspond à une p-value <0,001, soit par (**) qui correspond à une p-value <0,01. • La Figure 2 représente les résultats obtenus d'une détermination de l'adhésion et de la formation de biofilm par dénombrement à 24h. Sur cette figure, les ordonnées correspondent au logarithme d'unités formant colonie par millilitre de milieu de culture (Log UFC/ml). La Figure 2A représente un histogramme ou diagramme en bâton du nombre de bactéries dénombrées suite à des cultures séparées de souche S. aureus Newman (Newman), S. aureus SAC1 (SAC 1), P. aeruginosa PAO1 (PAO1) ou P. aeruginosa PAC1 (PAC1), pendant 24H dans un milieu BHI (BHI) (bâtons noirs) ou dans un exemple de milieu selon l'invention (MP) (bâtons gris). La Figure 2B montre sous forme d'histogramme le nombre de bactéries dénombrées suite à des co-cultures des souches de référence S. aureus Newman et P. aeruginosa PAO1 (PAO1/Newman), ainsi que du couple de souches cliniques S. aureus SAC1 et P. aeruginosa PAC1 (PAC 1/SAC1), pendant 24H dans un milieu BHI (BHI) (bâtons noirs) ou dans un exemple de milieu selon l'invention (MP) (bâtons gris). La mesure de différence significative, réalisée par le test de Student, entre les valeurs d'UFC est exprimée, soit par (***) qui correspond à une p-value <0,001, soit par (**) qui correspond à une p-value <0,01. • La Figure 3 représente les résultats obtenus d'une détermination de sensibilité à des antibiotiques de souches cliniques de S. aureus issues d'infections de plaies du pied chez le diabétique. Les données cliniques, anonymisées, nécessaires à l'interprétation des résultats, consistaient en l'antibiothérapie donnée au patient, ainsi que la qualification par les médecins hospitaliers d'un succès ou échec thérapeutique. La définition de succès ou échec thérapeutique est définie comme suit. Le patient commence et suit l'antibiothérapie prescrite et un deuxième prélèvement microbiologique est effectué lors du dernier jour de traitement de la 1ère antibiothérapie (± 2 jours). Ce prélèvement est utilisé pour déterminer la présence/absence du pathogène ciblé par l'antibiothérapie, S. aureus. Si ce prélèvement a montré la persistance d'un S. aureus, l'antibiothérapie est en échec. A l'inverse, en cas d'absence de S. aureus, l'antibiothérapie est associée à un succès thérapeutique. Les antibiogrammes ont été réalisés classiquement sur une durée de 18h ± 2h en accord avec les recommandations de l'EUCAST. Une gamme de l'antibiotique à tester a été réalisée. • La Figure 3A montre sous forme d'histogramme les résultats des CMI déduites d'antibiogrammes sur 11 souches testées en présence d'amoxicilline / clavulanate de potassium (commercialisé par exemple sous le nom d'Augmentin (marque déposée)).

[2] = test system: souches de S. aureus issues de prélèvements de plaies du pied infectées chez des patients diabétiques; test: Antibiotic susceptibility test (MIC, 96-well microplate, OD 600 nm) in wound medium of the invention (MP); format: cell-based; conditions: for MIC: Staphylococcus aureus, read-out: CMI en milieu plaie MP
Description: as §1

## amoxicilline / clavulanate de potassium [amoxicilline/clavulanate de potassium]
[1]; souche C01P012
  CMI en milieu MH: 0,25 mg/L / µg/L
  Classification (S) ou (R) en MH: (S)
[1]; souche C03P001
  CMI en milieu MH: 0,25 mg/L / µg/L
  Classification (S) ou (R) en MH: (S)
[1]; souche C03P008
  CMI en milieu MH: 0,5 mg/L / µg/L
  Classification (S) ou (R) en MH: (S)
[1]; souche C04P003
  CMI en milieu MH: 0,25 mg/L / µg/L
  Classification (S) ou (R) en MH: (S)
[1]; souche C04P005f
  CMI en milieu MH: 0,5 mg/L / µg/L
  Classification (S) ou (R) en MH: (S)
[1]; souche C04P005i
  CMI en milieu MH: 0,5 mg/L / µg/L
  Classification (S) ou (R) en MH: (S)
[1]; souche C04P007
  CMI en milieu MH: 0,25 mg/L / µg/L
  Classification (S) ou (R) en MH: (S)
[1]; souche C06P001f
  CMI en milieu MH: 0,25 mg/L / µg/L
  Classification (S) ou (R) en MH: (S)
[1]; souche C06P001 i
  CMI en milieu MH: 0,25 mg/L / µg/L
  Classification (S) ou (R) en MH: (S)
[1]; souche C06P003f
  CMI en milieu MH: 0,25 mg/L / µg/L
  Classification (S) ou (R) en MH: (S)
[1]; souche C06P003i
  CMI en milieu MH: 0,25 mg/L / µg/L
  Classification (S) ou (R) en MH: (S)
[2]; souche C01P012
  CMI en milieu plaie MP: 0,25 mg/L / µg/L
  Classification (S) ou (R) en MP: (S) (valeur de CMI mesurés dans l'exemple de milieu selon l'invention (MP), inférieure ou égale au seuil et ont été et peuvent être classifiées comme sensibles (noté S dans le tableau 5A))
[2]; souche C03P001
  CMI en milieu plaie MP: 0,5 mg/L / µg/L
  Classification (S) ou (R) en MP: (S) (valeur de CMI mesurés dans l'exemple de milieu selon l'invention (MP), inférieure ou égale au seuil et ont été et peuvent être classifiées comme sensibles (noté S dans le tableau 5A))
[2]; souche C03P008
  CMI en milieu plaie MP: 1 mg/L / µg/L
  Classification (S) ou (R) en MP: (R) (valeur de CMI mesurée dans l'exemple de milieu selon l'invention (MP) supérieure au seuil et peuvent être classifiées comme résistantes (noté R dans le tableau 5A))
[2]; souche C04P003
  CMI en milieu plaie MP: 0,25 mg/L / µg/L
  Classification (S) ou (R) en MP: (S) (valeur de CMI mesurés dans l'exemple de milieu selon l'invention (MP), inférieure ou égale au seuil et ont été et peuvent être classifiées comme sensibles (noté S dans le tableau 5A))
[2]; souche C04P005f
  CMI en milieu plaie MP: 0,5 mg/L / µg/L
  Classification (S) ou (R) en MP: (S) (valeur de CMI mesurés dans l'exemple de milieu selon l'invention (MP), inférieure ou égale au seuil et ont été et peuvent être classifiées comme sensibles (noté S dans le tableau 5A))
[2]; souche C04P005i
  CMI en milieu plaie MP: 0,5 mg/L / µg/L
  Classification (S) ou (R) en MP: (S) (valeur de CMI mesurés dans l'exemple de milieu selon l'invention (MP), inférieure ou égale au seuil et ont été et peuvent être classifiées comme sensibles (noté S dans le tableau 5A))
[2]; souche C04P007
  CMI en milieu plaie MP: 1 mg/L / µg/L
  Classification (S) ou (R) en MP: (R) (valeur de CMI mesurée dans l'exemple de milieu selon l'invention (MP) supérieure au seuil et peuvent être classifiées comme résistantes (noté R dans le tableau 5A))
[2]; souche C06P001f
  CMI en milieu plaie MP: 2 mg/L / µg/L
  Classification (S) ou (R) en MP: (R) (valeur de CMI mesurée dans l'exemple de milieu selon l'invention (MP) supérieure au seuil et peuvent être classifiées comme résistantes (noté R dans le tableau 5A))
[2]; souche C06P001 i
  CMI en milieu plaie MP: 4 mg/L / µg/L
  Classification (S) ou (R) en MP: (R) (valeur de CMI mesurée dans l'exemple de milieu selon l'invention (MP) supérieure au seuil et peuvent être classifiées comme résistantes (noté R dans le tableau 5A))
[2]; souche C06P003f
  CMI en milieu plaie MP: 1 mg/L / µg/L
  Classification (S) ou (R) en MP: (R) (valeur de CMI mesurée dans l'exemple de milieu selon l'invention (MP) supérieure au seuil et peuvent être classifiées comme résistantes (noté R dans le tableau 5A))
[2]; souche C06P003i
  CMI en milieu plaie MP: 2 mg/L / µg/L
  Classification (S) ou (R) en MP: (R) (valeur de CMI mesurée dans l'exemple de milieu selon l'invention (MP) supérieure au seuil et peuvent être classifiées comme résistantes (noté R dans le tableau 5A))

## CCC[C@@H]1C[C@@H](C(=O)N[C@@H]([C@H]2O[C@H](SC)[C@H](O)[C@@H](O)[C@H]2O)[C@H](C)Cl)N(C)C1 [clindamycine]
[1]; souche C01P009
  MIC: 0.25 µg/mL (≈ 0.588 µM)
  Classification (S) ou (R) en MH: (S)
[1]; souche C01P010
  MIC: 0.25 µg/mL (≈ 0.588 µM)
  Classification (S) ou (R) en MH: (S)
[1]; souche C03P003
  MIC: 0.25 µg/mL (≈ 0.588 µM)
  Classification (S) ou (R) en MH: (S)
[1]; souche C03P004
  MIC: 0.25 µg/mL (≈ 0.588 µM)
  Classification (S) ou (R) en MH: (S)
[1]; souche C03P005
  MIC: 0.25 µg/mL (≈ 0.588 µM)
  Classification (S) ou (R) en MH: (S)
[1]; souche C03P009
  MIC: 0.5 µg/mL (≈ 1.18 µM)
  Classification (S) ou (R) en MH: (S)
[2]; souche C01P009
  MIC: 0.25 µg/mL (≈ 0.588 µM)
  Classification (S) ou (R) en MP: (S) (valeur de CMI mesurée dans un milieu plaie, exemple de milieu selon l'invention (MP) inférieure ou égale au seuil déterminé et peuvent être classifiées comme sensibles (noté S dans le tableau 5C))
[2]; souche C01P010
  MIC: 2 µg/mL (≈ 4.71 µM)
  Classification (S) ou (R) en MP: (R) (valeur de CMI mesurée dans un milieu plaie, exemple de milieu selon l'invention (MP), supérieure au seuil et peuvent être classifiées comme résistantes (noté R dans le tableau 5C))
[2]; souche C03P003
  MIC: 0.25 µg/mL (≈ 0.588 µM)
  Classification (S) ou (R) en MP: (S) (valeur de CMI mesurée dans un milieu plaie, exemple de milieu selon l'invention (MP) inférieure ou égale au seuil déterminé et peuvent être classifiées comme sensibles (noté S dans le tableau 5C))
[2]; souche C03P004
  MIC: 0.25 µg/mL (≈ 0.588 µM)
  Classification (S) ou (R) en MP: (S) (valeur de CMI mesurée dans un milieu plaie, exemple de milieu selon l'invention (MP) inférieure ou égale au seuil déterminé et peuvent être classifiées comme sensibles (noté S dans le tableau 5C))
[2]; souche C03P005
  MIC: 1 µg/mL (≈ 2.35 µM)
  Classification (S) ou (R) en MP: (R) (valeur de CMI mesurée dans un milieu plaie, exemple de milieu selon l'invention (MP), supérieure au seuil et peuvent être classifiées comme résistantes (noté R dans le tableau 5C))
[2]; souche C03P009
  MIC: 0.5 µg/mL (≈ 1.18 µM)
  Classification (S) ou (R) en MP: (S) (valeur de CMI mesurée dans un milieu plaie, exemple de milieu selon l'invention (MP) inférieure ou égale au seuil déterminé et peuvent être classifiées comme sensibles (noté S dans le tableau 5C))
